Measured values reported in US20200190073A1, “SUBSTITUTED SUCCINIMIDE DERIVATIVES AS PESTICIDES” (BASF SE, priority 2017, published 2020).

Columns and labels:
Type in all cases: in vivo
[1] = tested on: Silverleaf Whitefly (Bemisia argentifolii); test: CE.4 Silverleaf whitefly, comparative test; conditions: 72 h, read-out: % mortality in comparison to untreated controls
Experimental: (§1) The tables show % mortality in comparison to untreated controls.
CE.4 Silverleaf Whitefly (Bemisia argentifolii)
The active compounds were formulated in 50:50 acetone:water (vol:vol) and 100 ppm Kinetica™ surfactant.
Selected cotton plants were grown to the cotyledon state (one plant per pot). The cotyledons were dipped into the test solution to provide complete coverage of the foliage and placed in a well-vented area to dry. Each pot with treated seedling was placed in a plastic cup and 10 to 12 whitefly adults (approximately 3-5 day old) were introduced. The insects were collected using an aspirator and a Tygon® tubing connected to a barrier pipette tip. The tip, containing the collected insects, was then gently inserted into the soil containing the treated plant, allowing insects to crawl out of the tip to reach the foliage for feeding. The cups were covered with a reusable screened lid. Test plants were maintained in the holding room at about 25° C. and about 20-40% relative humidity for 3 days avoiding direct exposure to the fluorescent light (24 hour photoperiod) to prevent trapping of heat inside the cup. Mortality was assessed 3 days after treatment of the plants.

[2] = tested on: Rice Green Leafhopper (Nephotettix virescens); test: CE.5 Rice green leafhopper, comparative test; conditions: 72 h, read-out: % mortality in comparison to untreated controls
[3] = tested on: Diamond back moth (Plutella xylostella); test: CE.6 Diamond back moth, contact activity, comparative test; conditions: read-out: % mortality in comparison to untreated controls
Experimental: as §1
CE.6 Diamond Back Moth (Plutella xylostella)
Ten third-instar larvae are sprayed with 1 ml test solution and introduce to untreated leaves held petri dished lined with moist filter paper. Mortality is recorded 24, 72, and 120 hours after treatment.

[4] = tested on: Southern Armyworm (Spodoptera eridania), 2nd Instar Larvae; test: CE.7 Southern armyworm, 2nd instar larvae, comparative test; conditions: foliar, 96 h, leaf dip, at 4 days, read-out: % mortality in comparison to untreated controls
Experimental: as §1
CE.7 Southern Armyworm (Spodoptera eridania), 2nd Instar Larvae
The active compounds were formulated in 50:50 acetone:water (vol) and 100 ppm Kinetica™ surfactant.
A pair of first true leaves of Sieva lima bean was dipped into the test solution and allowed to dry. The leaves were then placed in a plastic perforated zip enclosure bag and ten 2nd instar larvae were added. At 4 days, observations were made of mortality and reduced feeding.

## O=C(NC1CCN(CC(F)(F)F)C1=O)c1ccc(C2=NOC(c3cc(Cl)c(F)c(Cl)c3)(C(F)(F)F)C2)c2c1CCC2 (stereo not shown) [Tab. 128, A-9 of WO 2015128358, reference compound]
[1]
  mortality at 10 ppm: 50%
[2]
  mortality at 3 ppm: 0%
[3]
  mortality at 0.1 ppm: 0%
[4]
  mortality at 3 ppm: 0%
